The text below walks through data of ChEMBL document CHEMBL1149847, “Erigeroflavanone, a flavanone derivative from the flowers of Erigeron annuus with protein glycation and aldose reductase inhibitory activity” (J Nat Prod, 2008).

As a reminder, the IC50 is the concentration at which inhibition is half-maximal. A higher IC50 goes with lower potency.

Data set [1] concerns the target Aldo-keto reductase family 1 member B1 (Rattus norvegicus, UniProt P07943). Put plainly: Inhibition of rat lens aldose reductase.
The nature of data set [2]: Inhibition of advanced glycation end products formation after 14 days. Format: physicochemical.

On to `O=c1cc(-c2ccc(O)cc2)oc2cc(O)cc(O)c12` [APIGENIN], for which the IC50 in data set [1] amounted to 6.67 µM; in data set [2], 89.9 µM.

The compound `C[C@@H]1O[C@@H](Oc2c(-c3ccc(O)c(O)c3)oc3cc(O)cc(O)c3c2=O)[C@H](O)[C@H](O)[C@H]1O` [QUERCITRIN] had an IC50 in data set [1] of 0.16 µM.

In turn, `O=c1c(O)c(-c2ccc(O)cc2)oc2cc(O)cc(O)c12` [KAEMPFEROL] showed a 50% inhibitory concentration (IC50) in data set [1] of 1.33 µM. Same read-out and setting: next, `COC(=O)[C@H]1O[C@@H](Oc2cc(O)c3c(=O)cc(-c4ccc(O)cc4)oc3c2)[C@H](O)[C@@H](O)[C@@H]1O`: 9.02 µM. For the compound `O=C(O)[C@H]1O[C@@H](Oc2cc(O)c3c(=O)cc(-c4ccc(O)cc4)oc3c2)[C@H](O)[C@@H](O)[C@@H]1O`, the IC50 is 1.28 µM in data set [1] and 107 µM in data set [2]. Turning to `O=c1c(O[C@@H]2O[C@H](CO)[C@@H](O)[C@H](O)[C@H]2O)c(-c2ccc(O)cc2)oc2cc(O)cc(O)c12` [ASTRAGALIN], the IC50 in data set [2] worked out at 179 µM. Regarding `COC(=O)C[C@]1(O)C(=O)c2c(O)cc(O)cc2O[C@]1(OC)c1ccc(O)c(O)c1` (relative stereo) [ERIGEROFLAVANONE], in data set [1], the IC50 turned out to be 46.9 µM.

Consider `N=C(N)NN` [PIMAGEDINE], for which inhibition in data set [2] was half-maximal at 961 µM (IC50).
